For 27 compounds, IC50 results are on record in patent US20060079566A1, “PDK-1/Akt signaling inhibitors” (priority 2003, published 2006).

As usually defined, the IC50 is the concentration that gives 50% inhibition.

Read-outs that look alike come from different tables or passages of the source.

One test deals with PC-3 cells. Description: Cell viability analysis (MTT) in PC-3 cells. The test is classed as cell-based, human. Particulars: Homo sapiens; inducing apoptotic death in PC-3 cells / PC-3 cell viability; read-out: IC50 PC-3. As for the experimental part: Cell Culture PC-3 (p53−/−) human androgen-nonresponsive prostate cancer cells were purchased from the American […] (Manassas, Va.). Cells were cultured in RPMI 1640 medium (Gibco, Grand Island, N.Y.) supplemented with 10% fetal bovine serum (FBS; Gibco) at 37° C. in a humidified incubator containing 5% CO2.
Cell viability analysis The effect of 4-[5-(4-methylphenyl)-3-(trifluoromethyl)-1H-pyrazol-1-yl]benzenesulfonamide and its derivatives on PC-3 cell viability was assessed by using the MTT {[3-(4,5-dimethylthiazol-2-yl)-2,5-diphenyl-2H-tetrazolium bromide]} assay in six replicates. Cells were grown in 10% FBS-supplemented RPMI 1640 medium in 96-well, flat bottomed plates for 24 h, and were exposed to various concentrations of compounds 1-36 dissolved in DMSO (final concentration ≦0.1%) in 1% serum-containing RPMI 1640 medium for different time intervals. Controls received DMSO vehicle at a concentration equal to that in drug-treated cells. The medium was removed, replaced by 200 μl of 0.5 mg/ml of MTT in 10% FBS-containing RPMI-1640 medium, and cells were incubated in the CO2 incubator at 37° C. for 2 h. Supernatants were removed from the wells, and the reduced MTT dye was solubilized in 200 μL/well DMSO. Absorbance at 570 nm was determined on a plate reader.

The next test addresses T1, recombinant PDK-1 (Homo sapiens, UniProt O15530).
T1 construct: purchased Upstate (Lake Placid, N.Y.)
T1 sequence (O15530 1-556): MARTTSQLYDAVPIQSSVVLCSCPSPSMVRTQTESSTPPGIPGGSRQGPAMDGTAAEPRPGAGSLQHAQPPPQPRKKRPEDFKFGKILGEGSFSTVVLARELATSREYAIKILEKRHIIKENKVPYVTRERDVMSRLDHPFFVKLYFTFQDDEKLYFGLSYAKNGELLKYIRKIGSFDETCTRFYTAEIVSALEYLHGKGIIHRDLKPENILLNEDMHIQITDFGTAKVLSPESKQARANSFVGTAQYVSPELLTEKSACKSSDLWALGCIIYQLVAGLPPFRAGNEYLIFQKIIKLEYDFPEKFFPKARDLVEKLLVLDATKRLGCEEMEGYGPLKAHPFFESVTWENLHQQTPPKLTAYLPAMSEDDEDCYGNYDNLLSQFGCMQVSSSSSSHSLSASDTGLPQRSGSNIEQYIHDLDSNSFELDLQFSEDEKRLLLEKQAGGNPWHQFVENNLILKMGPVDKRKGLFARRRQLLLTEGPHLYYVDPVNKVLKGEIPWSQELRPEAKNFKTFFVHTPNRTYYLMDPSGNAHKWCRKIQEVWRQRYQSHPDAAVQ
Description: PDK-1 kinase activity (Upstate kit, SGK-coupled, cell-free). The class given is biochemical.

Where [1] appears, read: inhibiting recombinant PDK-1 kinase activity, read-out: IC50 PDK-1.

Description for recombinant PDK-1: PDK-1 kinase activity This in vitro assay was performed using a PDK-1 kinase assay kit (Upstate, Lake Placid, N.Y.) according to the vendor's instructions. This cell-free assay is based on the ability of recombinant PDK-1, in the presence of DMSO vehicle or the test agent, to activate its downstream kinase serum- and glucocorticoid-regulated kinase (SGK.) which, in turn, phosphorylates the Akt/SGK-specific peptide substrate RPRAATF with [γ-^32]-ATP. […] The reported values represent the means of two independent determinations.

Turning to `Cc1ccc(-c2cc(C(F)(F)F)nn2-c2ccc(S(N)(=O)=O)cc2)cc1` [Comparative Compound, 4-[5-(4-methylphenyl)-3-(trifluoromethyl)-1H-pyrazol-1-yl]benzenesulfonamide, reference compound], the IC50 in the test on PC-3 cells was found to be 30 µM; at recombinant PDK-1 (setting [1]), 48 µM. `NS(=O)(=O)c1ccc(-n2nc(C(F)(F)F)cc2-c2ccc(CCBr)cc2)cc1` [Compound 37, 4-[5-(4-(2-bromoethyl)phenyl)-3-(trifluoromethyl)-1H-pyrazol-1-yl]benzenesulfonamide]: the concentration for half-maximal inhibition (IC50) with PC-3 cells amounted to 18 µM; at recombinant PDK-1, 42 µM. In the same order, the values of `NS(=O)(=O)c1ccc(-n2nc(C(F)(F)F)cc2-c2ccc(CCCBr)cc2)cc1` [Compound 38, 4-[5-(4-(3-bromopropyl)phenyl)-3-(trifluoromethyl)-1H-pyrazol-1-yl]benzenesulfonamide] are 17 µM and 38 µM. In the same order, the values of `[N-]=[N+]=NCCc1ccc(-c2cc(C(F)(F)F)nn2-c2ccc(S(N)(=O)=O)cc2)cc1` [Compound 39, 4-[5-(4-(2-azidoethyl)phenyl)-3-(trifluoromethyl)-1H-pyrazol-1-yl]benzenesulfonamide] are 17 µM and 32 µM. In the same order, the values of `[N-]=[N+]=NCCCc1ccc(-c2cc(C(F)(F)F)nn2-c2ccc(S(N)(=O)=O)cc2)cc1` [Compound 40, 4-[5-(4-(3-azidopropyl)phenyl)-3-(trifluoromethyl)-1H-pyrazol-1-yl]benzenesulfonamide] are 18 µM and 34 µM. `CCCCc1ccc(-c2cc(C(F)(F)F)nn2-c2ccc(S(N)(=O)=O)cc2)cc1` [Compound 41, 4-[5-(4-butylphenyl)-3-(trifluoromethyl)-1H-pyrazol-1-yl]benzenesulfonamide]: the IC50 stood at 9 µM in the test with PC-3 cells and 20 µM on recombinant PDK-1.

Turning to `CC(C)(C)c1ccc(-c2cc(C(F)(F)F)nn2-c2ccc(S(N)(=O)=O)cc2)cc1` [Compound 42, 4-[5-(4-t-butylphenyl)-3-(trifluoromethyl)-1H-pyrazol-1-yl]benzenesulfonamide], the IC50 in the test on PC-3 cells came out at 18 µM; on recombinant PDK-1 it was 34 µM. `NS(=O)(=O)c1ccc(-n2nc(C(F)(F)F)cc2-c2c[nH]c3ccccc23)cc1` [Compound 44, 4-[5-(3-indolyl)-3(trifluoromethyl)-1H-pyrazol-1-yl]benzenesulfonamide]: the IC50 came out at 31 µM in the test on PC-3 cells and 65 µM at recombinant PDK-1.

As for `NS(=O)(=O)c1ccc(-n2nc(C(F)(F)F)cc2-c2ccc(-c3ccccc3)cc2)cc1` [Compound 45], the IC50 with PC-3 cells is 11 µM; on recombinant PDK-1 (setting [1]) it was 21 µM. `NS(=O)(=O)c1ccc(-n2nc(C(F)(F)F)cc2-c2ccc(-c3ccc(Cl)cc3)cc2)cc1` [Compound 46, 4-[5-(4′-chloro[1,1′-biphenyl]-4-yl)-3-(trifluoromethyl)-1H-pyrazol-1-yl]benzenesulfonamide]: the half-maximal inhibitory concentration (IC50) in the test on PC-3 cells is 9 µM; on recombinant PDK-1 it was 22 µM.

Consider `NS(=O)(=O)c1ccc(-n2nc(C(F)(F)F)cc2-c2ccc(-c3cc(Cl)cc(Cl)c3)cc2)cc1` [Compound 47, 4-[5-(3′,5′-dichloro[1,1′-biphenyl]-4-yl)-3-(trifluoromethyl)-1H-pyrazol-1-yl]benzenesulfonamide], for which the IC50 turned out to be 10 µM in the test with PC-3 cells and 18 µM on recombinant PDK-1. Consider `NS(=O)(=O)c1ccc(-n2nc(C(F)(F)F)cc2-c2ccc(-c3cccc(Cl)c3Cl)cc2)cc1` [Compound 48, 4-[5-(2′,3′-dichloro[1,1′-biphenyl]-4-yl)-3-(trifluoromethyl)-1H-pyrazol-1-yl]benzenesulfonamide], for which the IC50 in the test with PC-3 cells was 10 µM; on recombinant PDK-1 (setting [1]) it was 23 µM. With `NS(=O)(=O)c1ccc(-n2nc(C(F)(F)F)cc2-c2ccc(-c3cc(Cl)c(Cl)cc3Cl)cc2)cc1` [Compound 49, 4-[5-(2′,4′,5′-trichloro[1,1′-biphenyl]-4-yl)-3(trifluoromethyl)-1H-pyrazol-1-yl]benzenesulfonamide], the half-inhibitory concentration (IC50) was 5 µM with PC-3 cells and 9 µM on recombinant PDK-1. As for `Cc1ccc(-c2ccc(-c3cc(C(F)(F)F)nn3-c3ccc(S(N)(=O)=O)cc3)cc2)cc1` [Compound 50, 4-[5-(4′-methyl[1,1′-biphenyl]4-yl)-3-(trifluoromethyl)-1H-1-yl]benzenesulfonamide], the half-inhibitory concentration (IC50) in the test on PC-3 cells turned out to be 8 µM.

`NS(=O)(=O)c1ccc(-n2nc(C(F)(F)F)cc2-c2ccc(-c3ccc(CBr)cc3)cc2)cc1` [Compound 52, 4-[5-(4′-bromomethyl[1,1′-biphenyl]-4-yl)-3-(trifluoromethyl)-1H-1-yl]benzenesulfonamide]: the concentration for half-maximal inhibition (IC50) was 11 µM with PC-3 cells and 20 µM at recombinant PDK-1 (setting [1]). As to `Cc1cc(C)cc(-c2ccc(-c3cc(C(F)(F)F)nn3-c3ccc(S(N)(=O)=O)cc3)cc2)c1` [Compound 53, 4-[5-(3′,5′-dimethyl[1,1;-biphenyl]-4-yl)-3-(trifluoromethyl)-1H-1-yl]benzenesulfonamide], the IC50 on recombinant PDK-1 (setting [1]) was found to be 17 µM. For `CCCCc1ccc(-c2ccc(-c3cc(C(F)(F)F)nn3-c3ccc(S(N)(=O)=O)cc3)cc2)cc1` [Compound 54, 4-[5-(4′-butyl[1,1′-biphenyl]-4-yl)-3-(trifluoromethyl)-1H-1-yl]benzenesulfonamide], the results for the concentration for half-maximal inhibition (IC50) in the test on PC-3 cells and at recombinant PDK-1 (setting [1]) were 15 µM and 32 µM, respectively. The matching figures for `CC(C)(C)c1ccc(-c2ccc(-c3cc(C(F)(F)F)nn3-c3ccc(S(N)(=O)=O)cc3)cc2)cc1` [Compound 55, 4-[5-(4′-tert-buty[1,1′-biphenyl]-4-yl)-3-(trifluoromethyl)-1H-1-yl]benzenesulfonamide]: 15 µM and 32 µM. With `NS(=O)(=O)c1ccc(-n2nc(C(F)(F)F)cc2-c2ccc(Cc3ccccc3)cc2)cc1` [Compound 56, 4-[5-(4-(phenylmethyl)phenyl)-3-(trifluoromethyl)-1H-1-yl]benzenesulfonamide], in the test on PC-3 cells, the half-maximal inhibitory concentration (IC50) was 8 µM.

With `NS(=O)(=O)c1ccc(-n2nc(C(F)(F)F)cc2-c2ccc3c(c2)Cc2ccccc2-3)cc1` [Compound 57, 4-[5-(9H-fluoren-2-yl)-3-(trifluoromethyl)-1H-1-yl]benzenesulfonamide], the half-maximal inhibitory concentration (IC50) on recombinant PDK-1 (setting [1]) worked out at 16 µM. For the compound `NS(=O)(=O)c1ccc(-n2nc(C(F)(F)F)cc2-c2c3ccccc3cc3ccccc23)cc1` [Compound 58, 4-[5-(9-anthracenyl)-3-(trifluoromethyl)-1H-1-yl]benzenesulfonamide], the IC50 in the test on PC-3 cells was found to be 7 µM; on recombinant PDK-1 (setting [1]), 12 µM. With `NS(=O)(=O)c1ccc(-n2nc(C(F)(F)F)cc2-c2cc3ccccc3c3ccccc23)cc1` [Compound 60, 4-[5-(9-phenanthrenyl)-3-(trifluoromethyl)-1H-1-yl]benzenesulfonamide], the IC50 in the test with PC-3 cells was 23 µM; at recombinant PDK-1 it was 42 µM.

Regarding `NC(=O)c1ccc(-n2nc(C(F)(F)F)cc2-c2ccc3c(ccc4ccccc43)c2)cc1` [Compound 61, 4-[5-(2-Phenanthracenyl)-3-(trifluoromethyl)-1H-pyrazol-1-yl]-benzenecarboxamide], the half-maximal inhibitory concentration (IC50) came to 7 µM in the test with PC-3 cells and 12 µM at recombinant PDK-1 (setting [1]). In the same order, the values of `N#Cc1ccc(-n2nc(C(F)(F)F)cc2-c2ccc3c(ccc4ccccc43)c2)cc1` [Compound 62, 4-[5-(2-Phenanthrenyl)-3-(trifluoromethyl)-1H-pyrazol-1-yl]-benzonitrile] are 30 µM and 45 µM. Take `N=C(NO)c1ccc(-n2nc(C(F)(F)F)cc2-c2ccc3c(ccc4ccccc43)c2)cc1` [Compound 63, 4-[5-(2-Phenanthrenyl)-3-(trifluoromethyl)-1H-pyrazol-1-yl]-N-hydroxybenzamidine]: the IC50 in the test on PC-3 cells turned out to be 25 µM; at recombinant PDK-1, 40 µM. As to `O/N=C/c1ccc(-n2nc(C(F)(F)F)cc2-c2ccc3c(ccc4ccccc43)c2)cc1` [Compound 65, 4-5[-(2-Phenanthrenyl)-3-(trifluoromethyl)-1H-pyraxol-1-yl]-benzaldehyde oxime], the IC50 with PC-3 cells was found to be 14 µM.

On to `NC(Cc1ccc(-n2nc(C(F)(F)F)cc2-c2ccc3c(ccc4ccccc43)c2)cc1)=NO` [Compound 68, 2-{4-[5-(2-Phenanthrenyl)-3-(trifluoromethyl)-1H-pyrazol-1-y]-phenyl}-N-hydroxy-acetamidine], for which the half-maximal inhibitory concentration (IC50) in the test with PC-3 cells turned out to be 8 µM.
